How the values were obtained:
[1] = tested on: pY1234-cMET (activated cMET) in the nucleus, A549; assay: Western blots of nuclear versus cytoplasmic fractions; details: A549, β-lap 3 μM and 6 μM for 2 h
Protocol: Images of Western blots of nuclear versus cytoplasmic fractions from A549 cells treated with vehicle (DMSO, 0.1%) control and indicated concentrations of β-lap±DIC (50 μM) for 2 h. Lamin B1 and tubulin were used as loading controls for nuclear and cytoplasmic fractions, respectively.
Bar graph depicting quantification of pY1234-cMET (activated cMET) in the nucleus at indicated treatment conditions.

[2] = tested on: A549 shMET; assay: migration and invasion, A549 shSCR versus shMET; type: cell-based; details: β-lap 3 μM 2 h, p<0.001
Protocol: FIG. 4H. Representative images of A549 shSCR versus shMET migration at 16 h following treatments with DMSO-treated control and β-Lap (3 μM) for 2 h. Scale bars, 50 μm;
FIG. 4I. Bar graph showing quantification of cell migration expressed as a percent of control (vehicle). Quantitative data were shown as the mean±SEM. **** p<0.0001, ** p<0.01, *p<0.05, ns=not significant.
FIG. 4J. Representative images of A549 shSCR versus shMET invasion using a matrigel-coated transwell system at 16 h following treatments with DMSO-treated control and β-Lap (3 μM) for 2 h. Scale bars, 50 μm;
FIG. 4K. Bar graph showing quantification of cell invasion expressed as a percent of control (vehicle). Quantitative data were shown as the mean±SEM. **** p<0.0001, ** p<0.01, *p<0.05, ns=not significant.
FIG. 4-1B. Bar graph illustrating percentage wound closure at indicated time points in A549 shSCR versus shMET treated with vehicle control or non-lethal β-lap for 2 h. Two-way ANOVA was used for statistical analyses; * p<0.05.
Overexpression of cMET in many cancers, including NSCLC and PDAC, is known to enhance cancer cell mobility, migration, and invasion (Spina, et al., Biomedicines 2015, 3(1), 71-88). […]

[3] = tested on: 53BP1 foci (DSBs) in A549 NSCLC; assay: 53BP1 foci formation, A549; type: cell-based; details: A549, sub-lethal β-lap 3 μM for 2 h, monitored 24 h
Protocol: FIG. 3D. Graphical representation of average 53BP1 foci formation per nucleus at indicated treatment conditions: criz (1 μM), β-lap (3 μM), and DIC separately or in combination.
FIG. 3E Graph showing quantification of DSB formation (% cells with ≥5 53BP1 foci) following exposure of A549 shSCR vs shMET cells to indicated agents for 2 h (in red arrow), washed out and monitored up to 24 h to determine DSB repair kinetics.

[4] = tested on: A549 NSCLC cells; assay: long-term cell survival assay, A549; type: cell-based; details: sub-lethal crizotinib (2 μM) 2 h pre-treatment, then criz ± β-lap 2 h, ~7 days, DER >1 = synergistic
Protocol: FIG. 1B. […] LC50 values were calculated from long-term cell survival graphs using GraphPad PRISM; ND denotes Not Determined even at the highest concentration presented. All error bars represent the mean±SEM. **** p<0.0001, *** p<0.001, ** p<0.01, *p<0.05.
FIG. 1C. […] LC50 values were calculated from long-term cell survival graphs using GraphPad PRISM; ND denotes Not Determined even at the highest concentration presented. All error bars represent the mean±SEM. **** p<0.0001, *** p<0.001, ** p<0.01, *p<0.05.

[5] = tested on: A549 NQO1−/− cells; assay: long-term cell survival, A549 NQO1 knock out; type: cell-based; details: β-lap alone
Protocol: (§1) LC50 values were calculated from long-term cell survival graphs using GraphPad PRISM; ND denotes Not Determined even at the highest concentration presented. All error bars represent the mean±SEM. **** p<0.0001, *** p<0.001, ** p<0.01, *p<0.05.
FIG. 1F. […] LC50 values were calculated from long-term cell survival graphs using GraphPad PRISM; ND denotes Not Determined even at the highest concentration presented. All error bars represent the mean±SEM. **** p<0.0001, *** p<0.001, ** p<0.01, *p<0.05.

[6] = tested on: A549 shMET cells; assay: long-term survival, A549 shSCR vs shMET; type: cell-based; details: β-lap 2 h
Protocol: as §1

[7] = tested on: A549 NSCLC with transient MET knockdown (siMET); assay: long-term survival, A549 transient MET knockdown; details: A549, two different siRNAs
Protocol: Graph showing relative long-term survival studies in A549 NSCLC with transient MET knockdown (siMET) compared to siSCR control. β-lap was added±DIC (50 μM) for 2 h after RNAi transfection (48 h) with two different siRNA sequences.
Next, we investigated whether loss of cMET activity arising from genetic depletion of MET expression could enhance the therapeutic effect of β-lap at lower concentrations.

[8] = tested on: Capan2-mCherry microtumor; assay: 3D spheroid co-culture, tumor cells; type: cell-based; details: 3D co-culture with NIH3T3-GFP; crizotinib 2 μM, β-lap 2 μM or 4 μM
Protocol: FIG. 5D. Top Inset: Representative brightfield, green (NIH3T3-GFP), red (Capan2-mCherry), and merged images of 3D spheroid co-culture of Capan2-mCherry (cancer cells) and NIH3T3-GFP (normal cells). 3D co-cultures were exposed to specified treatment conditions and imaged at indicated times to monitor drug response. Scale bar=250 μm. Untreated NIH3T3-GFP 3D spheroid culture by itself (imaged at indicated times) was added for reference.
FIG. 5E. Bar graph of Capan2-mCherry 3D spheroid microtumor growth at specified treatment conditions over time. Asterisk (*) indicates synergistic response in the combination treatment compared to the corresponding individual treatments alone.
Next, we investigated the tumor-selectivity and efficacy of our combination treatment strategy using 3D co-culture spheroids of Capan2 PDAC (permanently labelled with mCherry) and NIH3T3 mouse embryonic fibroblast cells (permanently labelled with GFP) to mimic physiological cell-cell and cell-environment interactions during treatment. […] These are consistent with patient data comparing associated normal tissues versus tumors in pancreas (FIGS. 1-1B, 1-1G) and lungs (FIGS. 1A, 1-1B, 1-1H). Using confocal fluorescent microscopy, we noted that NIH3T3-GFP fibroblast cells were surrounding the Capan2-mCherry PDAC cells in the 3D spheroid co-culture (FIG. 5D).

Compound: CC1(C)CCC2=C(O1)c1ccccc1C(=O)C2=O [β-lap, β-Lapachone]
- translocation of activated cMET (pY1234-cMET) into the nucleus [1]: greatly enhanced
- cell invasion [2]: significantly reduces
- cell migration [2]: significantly reduces
- DSB formation and repair [3]: induced formation of DSBs that were easily repaired
- DERLC50 (dose-enhancement ratio) of β-lap [4]: 6.6
- sensitivity after knocking out NQO1 [5]: more resistant
- sensitivity to β-lap compared to shSCR control [6]: hypersensitivity
- sensitivity to β-lap compared to siSCR control [7]: sensitization
- Capan2-mCherry microtumor growth [8]: very little effect on tumor growth

— patent US20240197709A1, “POTENTIATING THE TUMOR-SELECTIVE EFFECTS OF NQO1-BIOACTIVATABLE AGENT BY USE OF CMET INHIBITOR” (The Trustees of Indiana University, priority 2022, published 2024)
